Measurements published in PubChem BioAssay AID1259407 (Chemical Carcinogenesis Research Information System (CCRIS), 2018).
The source made the active and inactive calls. The rule behind the calls is not given here.

System: CCRIS mutagenicity, Ames/micronucleus/aberration tests
Test: CCRIS mutagenicity studies
[1] = Test System: AMES SALMONELLA TYPHIMURIUM, Strain/Indicator: TA98, Metabolic Activation: HAMSTER, LIVER, S-9, AROCLOR 1254 (10%), Method: PREINCUBATION
[2] = Test System: AMES SALMONELLA TYPHIMURIUM, Strain/Indicator: TA98, Metabolic Activation: NONE, Method: PREINCUBATION
[3] = Test System: AMES SALMONELLA TYPHIMURIUM, Strain/Indicator: TA98, Metabolic Activation: NONE, Method: STANDARD PLATE
[4] = Test System: AMES SALMONELLA TYPHIMURIUM, Strain/Indicator: TA98, Metabolic Activation: RAT, LIVER, S-9, AROCLOR 1254 (10%), Method: PREINCUBATION
[5] = Test System: AMES SALMONELLA TYPHIMURIUM, Strain/Indicator: TA98, Metabolic Activation: RAT, LIVER, S-9, AROCLOR 1254, Method: STANDARD PLATE
[6] = Test System: AMES SALMONELLA TYPHIMURIUM, Strain/Indicator: TA100, Metabolic Activation: HAMSTER, LIVER, S-9, AROCLOR 1254 (10%), Method: PREINCUBATION
[7] = Test System: AMES SALMONELLA TYPHIMURIUM, Strain/Indicator: TA100, Metabolic Activation: NONE, Method: PREINCUBATION
[8] = Test System: AMES SALMONELLA TYPHIMURIUM, Strain/Indicator: TA100, Metabolic Activation: NONE, Method: STANDARD PLATE
[9] = Test System: AMES SALMONELLA TYPHIMURIUM, Strain/Indicator: TA100, Metabolic Activation: RAT, LIVER, S-9, AROCLOR 1254 (10%), Method: PREINCUBATION
[10] = Test System: AMES SALMONELLA TYPHIMURIUM, Strain/Indicator: TA100, Metabolic Activation: RAT, LIVER, S-9, AROCLOR 1254, Method: STANDARD PLATE
[11] = Test System: AMES SALMONELLA TYPHIMURIUM, Strain/Indicator: TA1535, Metabolic Activation: HAMSTER, LIVER, S-9, AROCLOR 1254 (10%), Method: PREINCUBATION
[12] = Test System: AMES SALMONELLA TYPHIMURIUM, Strain/Indicator: TA1535, Metabolic Activation: NONE, Method: PREINCUBATION
[13] = Test System: AMES SALMONELLA TYPHIMURIUM, Strain/Indicator: TA1535, Metabolic Activation: NONE, Method: STANDARD PLATE
[14] = Test System: AMES SALMONELLA TYPHIMURIUM, Strain/Indicator: TA1535, Metabolic Activation: RAT, LIVER, S-9, AROCLOR 1254 (10%), Method: PREINCUBATION
[15] = Test System: AMES SALMONELLA TYPHIMURIUM, Strain/Indicator: TA1535, Metabolic Activation: RAT, LIVER, S-9, AROCLOR 1254, Method: STANDARD PLATE
[16] = Test System: AMES SALMONELLA TYPHIMURIUM, Strain/Indicator: TA1537, Metabolic Activation: HAMSTER, LIVER, S-9, AROCLOR 1254 (10%), Method: PREINCUBATION
[17] = Test System: AMES SALMONELLA TYPHIMURIUM, Strain/Indicator: TA1537, Metabolic Activation: NONE, Method: PREINCUBATION
[18] = Test System: AMES SALMONELLA TYPHIMURIUM, Strain/Indicator: TA1537, Metabolic Activation: NONE, Method: STANDARD PLATE
[19] = Test System: AMES SALMONELLA TYPHIMURIUM, Strain/Indicator: TA1537, Metabolic Activation: RAT, LIVER, S-9, AROCLOR 1254 (10%), Method: PREINCUBATION
[20] = Test System: AMES SALMONELLA TYPHIMURIUM, Strain/Indicator: TA1537, Metabolic Activation: RAT, LIVER, S-9, AROCLOR 1254, Method: STANDARD PLATE
[21] = Test System: AMES SALMONELLA TYPHIMURIUM, Strain/Indicator: TA1538, Metabolic Activation: NONE, Method: STANDARD PLATE
[22] = Test System: AMES SALMONELLA TYPHIMURIUM, Strain/Indicator: TA1538, Metabolic Activation: RAT, LIVER, S-9, AROCLOR 1254, Method: STANDARD PLATE

O.[Al+3].[Al+3].[Na+].[Na+].[O-2].[O-2].[O-2].[O-2].[O-2].[O-2].[Si+4]
mutagenic call [1]: inactive; negative
mutagenic call [2]: inactive; negative
mutagenic call [3]: inactive; negative
mutagenic call [4]: inactive; negative
mutagenic call [5]: inactive; negative
mutagenic call [6]: inactive; negative
mutagenic call [7]: inactive; negative
mutagenic call [8]: inactive; negative
mutagenic call [9]: inactive; negative
mutagenic call [10]: inactive; negative
mutagenic call [11]: inactive; negative
mutagenic call [12]: inactive; negative
mutagenic call [13]: inactive; negative
mutagenic call [14]: inactive; negative
mutagenic call [15]: inactive; negative
mutagenic call [16]: inactive; negative
mutagenic call [17]: inactive; negative
mutagenic call [18]: inactive; negative
mutagenic call [19]: inactive; negative
mutagenic call [20]: inactive; negative
mutagenic call [21]: inactive; negative
mutagenic call [22]: inactive; negative
mutagenic call (Test System: E. COLI, Strain/Indicator: WP2, Metabolic Activation: NONE, Method: STANDARD PLATE): inactive; negative
mutagenic call (Test System: E. COLI, Strain/Indicator: WP2, Metabolic Activation: RAT, LIVER, S-9, AROCLOR 1254, Method: STANDARD PLATE): inactive; negative

CNC(=O)Oc1ccccc1
mutagenic call [5]: inactive; negative
mutagenic call [15]: inactive; negative

Oc1c(Cl)cc(Cl)c(Cl)c1O
mutagenic call (Test System: CHINESE HAMSTER V-79, Strain/Indicator: V-79/6-THIOGUANINE, Metabolic Activation: NONE, Method: STANDARD PLATE): active; positive
mutagenic call (Test System: CHINESE HAMSTER V-79, Strain/Indicator: V-79/6-THIOGUANINE, Metabolic Activation: PRIMARY RAT HEPATOCYTES, Method: STANDARD PLATE): inactive; negative

Nc1n[nH]c(=S)s1
mutagenic call (Test System: AMES SALMONELLA TYPHIMURIUM, Strain/Indicator: TA98, Metabolic Activation: HAMSTER, LIVER, S-9, AROCLOR 1254, Method: STANDARD PLATE): inactive; negative
mutagenic call [3]: inactive; negative
mutagenic call [5]: inactive; negative
mutagenic call (Test System: AMES SALMONELLA TYPHIMURIUM, Strain/Indicator: TA100, Metabolic Activation: HAMSTER, LIVER, S-9, AROCLOR 1254, Method: STANDARD PLATE): inactive; negative
mutagenic call [8]: inactive; negative
mutagenic call [10]: inactive; negative
mutagenic call (Test System: AMES SALMONELLA TYPHIMURIUM, Strain/Indicator: TA1535, Metabolic Activation: HAMSTER, LIVER, S-9, AROCLOR 1254, Method: STANDARD PLATE): inactive; negative
mutagenic call [13]: inactive; negative
mutagenic call [15]: inactive; negative
mutagenic call (Test System: AMES SALMONELLA TYPHIMURIUM, Strain/Indicator: TA1537, Metabolic Activation: HAMSTER, LIVER, S-9, AROCLOR 1254, Method: STANDARD PLATE): inactive; negative
mutagenic call [18]: inactive; negative
mutagenic call [20]: inactive; negative
mutagenic call (Test System: AMES SALMONELLA TYPHIMURIUM, Strain/Indicator: TA1538, Metabolic Activation: HAMSTER, LIVER, S-9, AROCLOR 1254, Method: STANDARD PLATE): inactive; negative
mutagenic call [21]: inactive; negative
mutagenic call [22]: inactive; negative
mutagenic call (Test System: MOUSE LYMPHOMA, Strain/Indicator: L5178Y (TK+/TK-), Metabolic Activation: NONE, Method: SUSPENSION/PLATE): active; positive. reevaluation of results: positive
mutagenic call (Test System: Mouse lymphoma, Strain/Indicator: L5178Y (tk+/tk-), Metabolic Activation: Rat, Liver, S-9, Aroclor 1254, Method: Suspension/plate): inactive; negative

Cc1cc2cc3ccccc3cc2c2ccccc12
mutagenic call (Test System: AMES SALMONELLA TYPHIMURIUM, Strain/Indicator: TA100, Metabolic Activation: RAT, INTACT HEPATOCYTES, AROCLOR 1254, Method: PREINCUBATION): active; positive
mutagenic call (Test System: AMES SALMONELLA TYPHIMURIUM, Strain/Indicator: TA100, Metabolic Activation: RAT, NADPH-FORTIFIED HOMOGENIZED HEPATOCYTES, AROCLOR 1254, Method: PREINCUBATION): active; positive
mutagenic call (Test System: AMES SALMONELLA TYPHIMURIUM, Strain/Indicator: TA100, Metabolic Activation: RAT, SONICATED HEPATOCYTES, AROCLOR 1254, Method: PREINCUBATION): active; positive

CCOCCOC(=O)/C=C/c1ccc(OC)cc1
mutagenic call [1]: inactive; negative
mutagenic call [2]: inactive; negative
mutagenic call [4]: inactive; negative
mutagenic call [6]: inactive; negative
mutagenic call [7]: inactive; negative
mutagenic call [9]: inactive; negative
mutagenic call [11]: inactive; negative
mutagenic call [12]: inactive; negative
mutagenic call [14]: inactive; negative
mutagenic call [16]: inactive; negative
mutagenic call [17]: inactive; negative
mutagenic call [19]: inactive; negative

O=C(Nc1ccc(F)cc1)c1csc([N+](=O)[O-])c1
mutagenic call [3]: active; positive
mutagenic call [8]: active; positive

C=CCOc1ccccc1OCC(O)CN(N=O)C(C)C (configuration not stated)
mutagenic call (Test System: CHINESE HAMSTER V-79, Strain/Indicator: V-79/6-THIOGUANINE, Metabolic Activation: NONE, Method: REPLATING): inactive; negative
mutagenic call (Test System: CHINESE HAMSTER V-79, Strain/Indicator: V-79/6-THIOGUANINE, Metabolic Activation: RAT, HEPATOCYTES, Method: REPLATING): active; positive
mutagenic call (Test System: CHINESE HAMSTER V-79, Strain/Indicator: V-79/OUABAIN, Metabolic Activation: NONE): inactive; negative
mutagenic call (Test System: CHINESE HAMSTER V-79, Strain/Indicator: V-79/OUABAIN, Metabolic Activation: RAT, HEPATOCYTES): inactive; negative
mutagenic call (Test System: UDS HUMAN HEPATOCYTES, Strain/Indicator: THY INCORP, Metabolic Activation: NONE, Method: AUTORADIOGRAPHY): active; positive
mutagenic call (Test System: UDS RAT HEPATOCYTES, Strain/Indicator: THY INCORP, Metabolic Activation: NONE, Method: AUTORADIOGRAPHY): active; positive

COC(=O)c1cc(Oc2ccc(Cl)cc2Cl)ccc1[N+](=O)[O-]
mutagenic call (Test System: AMES SALMONELLA TYPHIMURIUM, Strain/Indicator: YG1021, Metabolic Activation: NONE, Method: PREINCUBATION): inactive; negative
mutagenic call (Test System: AMES SALMONELLA TYPHIMURIUM, Strain/Indicator: YG1021, Metabolic Activation: RAT, LIVER, S-9, PCB, Method: PREINCUBATION): inactive; negative
mutagenic call (Test System: AMES SALMONELLA TYPHIMURIUM, Strain/Indicator: YG1026, Metabolic Activation: NONE, Method: PREINCUBATION): inactive; negative
mutagenic call (Test System: AMES SALMONELLA TYPHIMURIUM, Strain/Indicator: YG1026, Metabolic Activation: RAT, LIVER, S-9, PCB, Method: PREINCUBATION): active; positive
